Test results published in patent US20050074810A1, “Method for non-invasilvely determining the relative levels of two biological substances” (priority 2001, published 2005).
Read-outs that look alike come from different tables or passages of the source.

Legend:
[1] = Protocol: Every hour, the entire content of the cathode solution was withdrawn and the chamber refilled with fresh buffer.
Three replicates were performed for each lithium concentration.

[2] = subdermal lactate 1.74 mM, ammonium 1.56 mM

**Q.** For `[Li]` [lithium], which “(10^3×) Extracted (lithium/Na^+) flux ratio” value ([1]; (10^3×) subdermal [lithium]/[Na^+] ratio 3.4, 60 min) is on record?
**A.** Its value is 0.71 ± 0.28 ×10^3.

**Q.** And the “(10^3×) Extracted (lithium/Na^+) flux ratio” value ([1]; (10^3×) subdermal [lithium]/[Na^+] ratio 3.4, 120 min)?
**A.** Its value is 1.38 ± 0.19 ×10^3.

**Q.** What about the “(10^3×) Extracted (lithium/Na^+) flux ratio” value ([1]; (10^3×) subdermal [lithium]/[Na^+] ratio 3.4, 180 min) of the same compound?
**A.** Its value is 1.54 ± 0.20 ×10^3.

**Q.** What about the “(10^3×) Extracted (lithium/Na^+) flux ratio” value ([1]; (10^3×) subdermal [lithium]/[Na^+] ratio 3.4, 240 min) of the same compound?
**A.** The value was 1.80 ± 0.03 ×10^3.

**Q.** And the “(10^3×) Extracted (lithium/Na^+) flux ratio” value ([1]; (10^3×) subdermal [lithium]/[Na^+] ratio 3.4, 300 min)?
**A.** Its value is 1.62 ± 0.03 ×10^3.

**Q.** And the “(10^3×) Extracted (lithium/Na^+) flux ratio” value ([1]; (10^3×) subdermal [lithium]/[Na^+] ratio 6.5, 60 min)?
**A.** The value was 1.48 ± 0.41 ×10^3.

**Q.** What about the “(10^3×) Extracted (lithium/Na^+) flux ratio” value ([1]; (10^3×) subdermal [lithium]/[Na^+] ratio 6.5, 120 min) of the same compound?
**A.** Its value is 2.65 ± 0.55 ×10^3.

**Q.** And the “(10^3×) Extracted (lithium/Na^+) flux ratio” value ([1]; (10^3×) subdermal [lithium]/[Na^+] ratio 6.5, 180 min)?
**A.** Its value is 3.13 ± 0.78 ×10^3.

**Q.** And the “(10^3×) Extracted (lithium/Na^+) flux ratio” value ([1]; (10^3×) subdermal [lithium]/[Na^+] ratio 6.5, 240 min)?
**A.** Its value is 2.79 ± 0.35 ×10^3.

**Q.** What about the “(10^3×) Extracted (lithium/Na^+) flux ratio” value ([1]; (10^3×) subdermal [lithium]/[Na^+] ratio 6.5, 300 min) of the same compound?
**A.** Its value is 3.13 ± 0.51 ×10^3.

**Q.** What about the “(10^3×) Extracted (lithium/Na^+) flux ratio” value ([1]; (10^3×) subdermal [lithium]/[Na^+] ratio 10.3, 60 min) of the same compound?
**A.** The value was 2.28 ± 0.43 ×10^3.

**Q.** What about the “(10^3×) Extracted (lithium/Na^+) flux ratio” value ([1]; (10^3×) subdermal [lithium]/[Na^+] ratio 10.3, 120 min) of the same compound?
**A.** The value was 4.45 ± 0.64 ×10^3.

**Q.** And the “(10^3×) Extracted (lithium/Na^+) flux ratio” value ([1]; (10^3×) subdermal [lithium]/[Na^+] ratio 10.3, 180 min)?
**A.** The value was 5.25 ± 0.48 ×10^3.

**Q.** And the “(10^3×) Extracted (lithium/Na^+) flux ratio” value ([1]; (10^3×) subdermal [lithium]/[Na^+] ratio 10.3, 240 min)?
**A.** Its value is 5.64 ± 0.52 ×10^3.

**Q.** What about the “(10^3×) Extracted (lithium/Na^+) flux ratio” value ([1]; (10^3×) subdermal [lithium]/[Na^+] ratio 10.3, 300 min) of the same compound?
**A.** The value was 5.45 ± 0.36 ×10^3.

**Q.** What about the “K′ (QLi/QNa=K′.[Li], slope of FIG. 25a)” value ([1]; pig, pH 7.4) of the same compound?
**A.** The value was 4.18×10^−3.

**Q.** What about the “K (QLi/QNa=K.[Li]/[Na], slope of FIG. 25b)” value ([1]; short (5-hour) period of iontophoresis at 0.5 mA/cm^2) of the same compound?
**A.** The value was 0.56.

**Q.** For `N` [Ammonium, ammonium], which “Deduced transport number (×100)” value ([2]; 3 h) is on record?
**A.** The value was 1.36 ± 0.09 ×100.

**Q.** And the “K for analyte/internal standard couple, internal standard Na^+” value ([2]; 3 h)?
**A.** Its value is 1.71 ± 0.09.

**Q.** What about the “Deduced transport number (×100)” value ([2]; 5 h) of the same compound?
**A.** The value was 1.44 ± 0.03 ×100.

**Q.** What about the “K for analyte/internal standard couple, internal standard Na^+” value ([2]; 5 h) of the same compound?
**A.** The value was 1.71 ± 0.01.

**Q.** What does the source list for `CC(O)C(=O)O` (centres unmarked) [Lactate, lactate]?
**A.** Deduced transport number (×100) ([2]; 3 h): 0.59 ± 0.08 ×100; Extracted flux ratio (×10^3) relative to K^+ ([2]; 3 h): 149 ± 3.3 ×10^3; Extracted flux ratio (×10^3) relative to Na^+ ([2]; 3 h): 8.7 ± 0.1 ×10^3; K for analyte/internal standard couple, internal standard Na^+ ([2]; 3 h): 0.66 ± 0.01; Deduced transport number (×100) ([2]; 5 h): 0.56 ± 0.07 ×100; Extracted flux ratio (×10^3) relative to K^+ ([2]; 5 h): 138 ± 15 ×10^3; Extracted flux ratio (×10^3) relative to Na^+ ([2]; 5 h): 7.8 ± 1.1 ×10^3; K for analyte/internal standard couple, internal standard Na^+ ([2]; 5 h): 0.60 ± 0.08
